Reference: ChEMBL document CHEMBL2216752, “Carnitine palmitoyltransferase (CPT) modulators: a medicinal chemistry perspective on 35 years of research” (J Med Chem, 2011)

Columns and labels:
[1] = target: T1, Carnitine O-palmitoyltransferase 2, mitochondrial (Rattus norvegicus, UniProt P18886); assay: Inhibition of rat CPT2
T1 sequence (P18886 whole entry): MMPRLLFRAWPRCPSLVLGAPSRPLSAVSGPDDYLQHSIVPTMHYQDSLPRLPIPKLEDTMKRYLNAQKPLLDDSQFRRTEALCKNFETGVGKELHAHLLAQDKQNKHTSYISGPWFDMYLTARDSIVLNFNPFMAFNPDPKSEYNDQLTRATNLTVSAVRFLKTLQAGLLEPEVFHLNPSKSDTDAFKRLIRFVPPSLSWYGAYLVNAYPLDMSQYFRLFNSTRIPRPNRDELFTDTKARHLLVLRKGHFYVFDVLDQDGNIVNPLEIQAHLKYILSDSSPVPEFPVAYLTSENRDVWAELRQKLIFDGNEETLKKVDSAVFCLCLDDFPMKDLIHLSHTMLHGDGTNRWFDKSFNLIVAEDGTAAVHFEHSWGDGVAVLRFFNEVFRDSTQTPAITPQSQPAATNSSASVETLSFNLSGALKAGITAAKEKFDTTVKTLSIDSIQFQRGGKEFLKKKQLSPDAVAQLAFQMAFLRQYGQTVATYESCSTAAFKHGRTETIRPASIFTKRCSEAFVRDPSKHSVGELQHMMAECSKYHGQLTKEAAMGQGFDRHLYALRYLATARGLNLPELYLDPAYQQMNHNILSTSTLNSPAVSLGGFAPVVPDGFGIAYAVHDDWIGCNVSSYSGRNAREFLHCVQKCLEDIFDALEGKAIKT

[2] = target: T2, Carnitine O-palmitoyltransferase 2, mitochondrial (Homo sapiens, UniProt P23786); assay: Inhibition of human CPT2
T2 sequence (P23786 whole entry): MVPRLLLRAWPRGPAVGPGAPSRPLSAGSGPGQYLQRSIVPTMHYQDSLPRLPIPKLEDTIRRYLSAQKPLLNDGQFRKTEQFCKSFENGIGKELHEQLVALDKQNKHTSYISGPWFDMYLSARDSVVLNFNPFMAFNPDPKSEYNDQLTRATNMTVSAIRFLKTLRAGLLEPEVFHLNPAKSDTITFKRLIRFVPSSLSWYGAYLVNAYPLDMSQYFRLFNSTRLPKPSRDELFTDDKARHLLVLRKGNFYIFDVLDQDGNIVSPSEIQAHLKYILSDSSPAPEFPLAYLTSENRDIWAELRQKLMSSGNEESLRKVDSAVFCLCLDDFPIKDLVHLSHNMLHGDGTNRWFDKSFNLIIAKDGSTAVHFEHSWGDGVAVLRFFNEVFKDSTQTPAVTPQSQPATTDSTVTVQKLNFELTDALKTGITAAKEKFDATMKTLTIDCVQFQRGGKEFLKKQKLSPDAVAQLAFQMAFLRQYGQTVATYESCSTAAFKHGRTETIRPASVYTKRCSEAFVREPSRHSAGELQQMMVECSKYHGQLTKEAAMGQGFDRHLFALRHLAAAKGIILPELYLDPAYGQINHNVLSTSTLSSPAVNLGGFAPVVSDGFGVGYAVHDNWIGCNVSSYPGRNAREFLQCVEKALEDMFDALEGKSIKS

[3] = target: T3, Carnitine O-palmitoyltransferase 1, muscle isoform (Homo sapiens, UniProt Q92523); assay: Inhibition of human CPT1B
T3 sequence (Q92523 whole entry): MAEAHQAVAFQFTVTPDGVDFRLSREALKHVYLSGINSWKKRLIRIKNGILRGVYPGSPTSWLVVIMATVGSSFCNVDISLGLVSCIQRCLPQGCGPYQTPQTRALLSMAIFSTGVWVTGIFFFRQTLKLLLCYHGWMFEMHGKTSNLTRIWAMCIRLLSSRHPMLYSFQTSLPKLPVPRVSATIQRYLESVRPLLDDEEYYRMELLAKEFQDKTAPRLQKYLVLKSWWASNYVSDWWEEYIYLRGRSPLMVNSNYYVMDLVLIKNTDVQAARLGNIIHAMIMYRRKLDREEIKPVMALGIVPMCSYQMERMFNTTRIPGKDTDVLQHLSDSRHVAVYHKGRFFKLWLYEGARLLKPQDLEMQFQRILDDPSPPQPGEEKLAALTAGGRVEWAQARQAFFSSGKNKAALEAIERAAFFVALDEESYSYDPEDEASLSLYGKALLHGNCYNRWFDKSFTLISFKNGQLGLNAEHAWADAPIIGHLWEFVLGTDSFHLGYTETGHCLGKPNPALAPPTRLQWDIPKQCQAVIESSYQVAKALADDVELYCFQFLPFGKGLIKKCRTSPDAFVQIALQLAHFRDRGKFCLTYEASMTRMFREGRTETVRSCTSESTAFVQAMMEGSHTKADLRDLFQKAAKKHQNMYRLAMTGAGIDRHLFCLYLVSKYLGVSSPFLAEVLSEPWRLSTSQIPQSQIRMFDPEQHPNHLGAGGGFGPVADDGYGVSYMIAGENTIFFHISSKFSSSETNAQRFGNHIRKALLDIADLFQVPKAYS

[4] = target: T4, Mitochondrial carnitine/acylcarnitine carrier protein (Homo sapiens, UniProt O43772); assay: Inhibition of CACT
T4 sequence (O43772 whole entry): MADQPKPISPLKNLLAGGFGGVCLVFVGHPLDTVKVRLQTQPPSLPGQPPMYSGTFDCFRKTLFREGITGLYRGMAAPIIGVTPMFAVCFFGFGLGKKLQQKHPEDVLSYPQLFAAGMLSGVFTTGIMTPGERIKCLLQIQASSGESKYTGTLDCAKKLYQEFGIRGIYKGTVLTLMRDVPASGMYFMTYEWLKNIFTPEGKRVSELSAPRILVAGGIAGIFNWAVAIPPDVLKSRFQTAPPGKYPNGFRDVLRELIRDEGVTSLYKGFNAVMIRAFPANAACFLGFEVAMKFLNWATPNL

[5] = target: T5, Carnitine O-palmitoyltransferase 1, liver isoform (Rattus norvegicus, UniProt P32198); assay: Inhibition of rat CPT1A using [3H]carnitine by radiometric assay
T5 sequence (P32198 whole entry): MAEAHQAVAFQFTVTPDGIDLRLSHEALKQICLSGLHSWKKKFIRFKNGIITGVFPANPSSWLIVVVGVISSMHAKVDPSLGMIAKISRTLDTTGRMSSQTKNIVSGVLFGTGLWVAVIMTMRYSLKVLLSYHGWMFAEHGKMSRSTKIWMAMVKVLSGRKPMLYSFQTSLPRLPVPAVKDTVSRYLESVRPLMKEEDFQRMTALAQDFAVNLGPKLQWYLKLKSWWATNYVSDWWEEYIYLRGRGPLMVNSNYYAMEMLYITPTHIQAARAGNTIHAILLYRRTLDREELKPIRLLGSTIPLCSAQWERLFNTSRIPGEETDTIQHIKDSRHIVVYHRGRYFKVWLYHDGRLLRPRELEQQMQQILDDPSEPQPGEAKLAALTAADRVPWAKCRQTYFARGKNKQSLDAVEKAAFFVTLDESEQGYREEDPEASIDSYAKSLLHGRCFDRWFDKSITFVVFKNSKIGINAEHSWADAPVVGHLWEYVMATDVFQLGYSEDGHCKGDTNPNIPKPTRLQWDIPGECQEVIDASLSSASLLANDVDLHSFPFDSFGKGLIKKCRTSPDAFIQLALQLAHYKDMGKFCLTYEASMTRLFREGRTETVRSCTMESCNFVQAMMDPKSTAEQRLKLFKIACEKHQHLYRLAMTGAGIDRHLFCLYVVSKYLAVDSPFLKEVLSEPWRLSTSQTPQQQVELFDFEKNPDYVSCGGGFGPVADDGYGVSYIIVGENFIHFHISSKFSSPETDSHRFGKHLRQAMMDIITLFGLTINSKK

[6] = target: T1, Carnitine O-palmitoyltransferase 2, mitochondrial; assay: Inhibition of rat CPT2 using [3H]carnitine by radiometric assay
[7] = Inhibition of carnitine palmitoyltransferase in rat heart mitochondria assessed as conversion of [14C]palmitic acid to [14C]palmitoylcarnitine by radiometric assay
[8] = Inhibition of carnitine palmitoyltransferase in rat liver mitochondria assessed as conversion of [14C]palmitic acid to [14C]palmitoylcarnitine by radiometric assay
[9] = target: T6, Carnitine O-palmitoyltransferase 1, liver isoform (Homo sapiens, UniProt P50416); assay: Inhibition of human CPT1A
T6 sequence (P50416 whole entry): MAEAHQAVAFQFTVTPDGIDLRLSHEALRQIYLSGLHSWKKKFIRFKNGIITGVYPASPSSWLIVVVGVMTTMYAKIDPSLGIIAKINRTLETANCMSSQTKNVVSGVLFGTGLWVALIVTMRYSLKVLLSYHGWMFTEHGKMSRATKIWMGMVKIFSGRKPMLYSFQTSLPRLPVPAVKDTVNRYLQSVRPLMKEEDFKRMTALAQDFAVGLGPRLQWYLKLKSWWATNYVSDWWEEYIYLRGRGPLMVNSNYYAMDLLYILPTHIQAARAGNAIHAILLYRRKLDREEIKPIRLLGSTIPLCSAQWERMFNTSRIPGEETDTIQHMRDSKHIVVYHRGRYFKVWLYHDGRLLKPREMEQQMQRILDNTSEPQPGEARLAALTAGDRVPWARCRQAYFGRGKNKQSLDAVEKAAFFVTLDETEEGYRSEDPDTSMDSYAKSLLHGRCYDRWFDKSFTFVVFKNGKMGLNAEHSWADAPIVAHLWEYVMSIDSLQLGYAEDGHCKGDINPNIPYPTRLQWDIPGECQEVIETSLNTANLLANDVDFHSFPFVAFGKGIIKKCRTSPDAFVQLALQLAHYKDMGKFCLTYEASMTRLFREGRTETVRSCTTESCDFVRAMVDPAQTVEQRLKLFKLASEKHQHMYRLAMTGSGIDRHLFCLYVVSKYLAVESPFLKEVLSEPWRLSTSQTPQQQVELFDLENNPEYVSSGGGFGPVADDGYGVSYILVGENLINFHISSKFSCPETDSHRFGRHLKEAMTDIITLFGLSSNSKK

[10] = target: T3, Carnitine O-palmitoyltransferase 1, muscle isoform; assay: Inhibition of CPT1B
[11] = target: T6, Carnitine O-palmitoyltransferase 1, liver isoform; assay: Inhibition of CPT1A
[12] = Inhibition of human FAO
[13] = Inhibition of rat FAO

| Compound | IC50 [1] [µM] | IC50 [2] [µM] | IC50 [3] [µM] | IC50 [9] [µM] | other results |
| --- | --- | --- | --- | --- | --- |
| COc1ccc(Cl)cc1S(=O)(=O)N1CC(C(=O)O)Oc2ccc(C(=O)Nc3cccc(F)c3)cc21 (configuration not stated) | > 100 | > 100 | 3.4 |  |  |
| CCCCCCCC(=O)O[C@@H](CC(=O)[O-])C[N+](C)(C)C |  |  |  |  | IC50 [4]: 35 µM |
| CCCCCCCCCCCCCCCC1(O)C[N+](C)(C)CC(CC(=O)[O-])O1 (stereo in doubt; (-)-27) |  |  |  |  | IC50 [5]: 15.5 µM; IC50 [6]: 6.7 µM |
| CCCCCCCCCCCNS(=O)(=O)N[C@H](CC(=O)[O-])C[N+](C)(C)C |  |  |  |  | IC50 [7]: 5.8 µM; IC50 [8]: 0.8 µM |
| COc1ccc(Cl)cc1S(=O)(=O)N1CCc2ccc(C(=O)Nc3ccc(C(=O)O)cc3)cc21 | 3.2 | 0.74 | > 100 | 0.021 |  |
| O=C(O)c1ccc(NC(=O)c2cccc(NS(=O)(=O)c3ccc(Cl)c(Cl)c3)c2)cc1 | 28.5 |  | 6.4 |  |  |
| CCCCCCCC[C@H]1OC(=O)C(CSCCNC(=O)CCNC(=O)[C@H](O)C(C)(C)COP(=O)(O)OP(=O)(O)OC[C@H]2O[C@@H](n3cnc4c(N)ncnc43)[C@H](O)[C@@H]2OP(=O)(O)O)[C@@H]1C(=O)O (some centres not stated) |  |  |  |  | IC50 [10]: 0.36 µM; IC50 [11]: 0.24 µM |
| O=C(COc1ccccc1)N1CCCC[C@@H]1c1nc(-c2ccccn2)cs1 | 30.7 | 4.8 | > 100 | 0.02 |  |
| CCCCCCCC[C@H]1OC(=O)C(C)=C1C(=O)O |  |  |  |  | IC50 [12]: 77 µM; IC50 [13]: > 100 µM |
| O=C(O)C(=O)c1ccc(OCCOc2ccc3ccccc3c2)s1 | > 100 | 4.7 | 0.16 | 2.4 | IC50 [12]: 25.5 µM; IC50 [13]: > 100 µM |
| COc1ccc(-c2noc([C@H]3CCCCN3C(=O)COc3ccccc3)n2)cc1 | > 100 |  | > 100 | 0.065 |  |
| CCCCCCCCCC(=O)O[C@@H](CC(=O)[O-])C[N+](C)(C)C |  |  |  |  | IC50 [4]: 5 µM |
